Laboratory results taken from publication PMC9096754 (Scientific Reports, 2022).
Where two headings read alike, the source gives them in different places. One block for each compound: values may come before it.

Key:
human PDE10A2 = target: T1, human PDE10A2 (Homo sapiens, UniProt Q9Y233); test: Phosphodiesterase 10A2 (PDE10A2) enzymatic assay (Eurofins Cerep 4080); format: biochemical
T1 construct: purchased Eurofins (Cerep), fee-for-service 4080; host or cells: Sf9
Description: In vitro characterization was performed on a fee-for-service basis at Eurofins (www.eurofins.com) if the assay was commercially available.
Additional details on the conduct of in vitro assays are included in Supplementary Information S1.
The IC50 value and the standard error of the mean (SEM) were determined by a non-linear, least squares regression analysis using GraphPad Prism Version 9.0.2 for Macintosh (GraphPad Software, San Diego, California USA, https://www.graphpad.com). The dose–response curve was plotted using RStudio Team (2020), v. 1.3.1073 (RStudio, PBC, Boston, MA, http://www.rstudio.com/). […]
(§1) formation of 5’AMP from cAMP using human recombinant enzyme e xpressed in Sf9 cells.
(§2) The test compound was added to a buffer containing 40 mM Tris/HCl (pH 7. 4), 8 mM MgCl2, and 0. 2 µM [3H]cAMP + cAMP. Thereafter, enzyme (about 0. 8 U) wa s added and the mixture incubated for 20 minutes at 25 °C. SPA beads were added and the mixture was maintained at 25 °C for 30 minutes under shaking. [3H]5’AMP was quantified via scintillation counting. The […]
used as standard inhibitory reference compound. A primary screening in duplicated was carried out (30 µM) to determine the target activity.
(100 µM highest concentration and dilution factor in a log-scale) in triplicate for dose-respons e

human AA2AR = target: T2, human AA2AR (Homo sapiens, UniProt P29274); test: Adenosine A2A receptor (AA2AR) calcium flux assay in RBL-2H3 cells (Eurofins Cerep 86-0011P-2409AN); format: cell-based; settings: top 30 μM, active if IC50 lower than 30 μM
T2 construct: host or cells: RBL-2H3
T2 sequence (P29274 whole entry): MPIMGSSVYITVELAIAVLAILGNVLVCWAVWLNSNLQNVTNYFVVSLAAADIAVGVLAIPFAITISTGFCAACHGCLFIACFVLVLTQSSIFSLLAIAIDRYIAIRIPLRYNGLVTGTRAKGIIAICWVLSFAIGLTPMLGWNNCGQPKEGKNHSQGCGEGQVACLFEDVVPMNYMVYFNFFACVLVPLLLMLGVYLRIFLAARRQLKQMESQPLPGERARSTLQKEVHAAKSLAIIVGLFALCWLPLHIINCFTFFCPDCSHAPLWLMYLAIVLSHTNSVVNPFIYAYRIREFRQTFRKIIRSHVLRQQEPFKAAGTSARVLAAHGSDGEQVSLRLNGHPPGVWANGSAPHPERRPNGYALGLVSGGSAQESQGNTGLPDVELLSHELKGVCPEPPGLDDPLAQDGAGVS

PKN2 (human) = PKN2 (human) (Homo sapiens, UniProt Q16513); test: biochemical
Sequence of PKN2 (human) (Q16513 whole entry): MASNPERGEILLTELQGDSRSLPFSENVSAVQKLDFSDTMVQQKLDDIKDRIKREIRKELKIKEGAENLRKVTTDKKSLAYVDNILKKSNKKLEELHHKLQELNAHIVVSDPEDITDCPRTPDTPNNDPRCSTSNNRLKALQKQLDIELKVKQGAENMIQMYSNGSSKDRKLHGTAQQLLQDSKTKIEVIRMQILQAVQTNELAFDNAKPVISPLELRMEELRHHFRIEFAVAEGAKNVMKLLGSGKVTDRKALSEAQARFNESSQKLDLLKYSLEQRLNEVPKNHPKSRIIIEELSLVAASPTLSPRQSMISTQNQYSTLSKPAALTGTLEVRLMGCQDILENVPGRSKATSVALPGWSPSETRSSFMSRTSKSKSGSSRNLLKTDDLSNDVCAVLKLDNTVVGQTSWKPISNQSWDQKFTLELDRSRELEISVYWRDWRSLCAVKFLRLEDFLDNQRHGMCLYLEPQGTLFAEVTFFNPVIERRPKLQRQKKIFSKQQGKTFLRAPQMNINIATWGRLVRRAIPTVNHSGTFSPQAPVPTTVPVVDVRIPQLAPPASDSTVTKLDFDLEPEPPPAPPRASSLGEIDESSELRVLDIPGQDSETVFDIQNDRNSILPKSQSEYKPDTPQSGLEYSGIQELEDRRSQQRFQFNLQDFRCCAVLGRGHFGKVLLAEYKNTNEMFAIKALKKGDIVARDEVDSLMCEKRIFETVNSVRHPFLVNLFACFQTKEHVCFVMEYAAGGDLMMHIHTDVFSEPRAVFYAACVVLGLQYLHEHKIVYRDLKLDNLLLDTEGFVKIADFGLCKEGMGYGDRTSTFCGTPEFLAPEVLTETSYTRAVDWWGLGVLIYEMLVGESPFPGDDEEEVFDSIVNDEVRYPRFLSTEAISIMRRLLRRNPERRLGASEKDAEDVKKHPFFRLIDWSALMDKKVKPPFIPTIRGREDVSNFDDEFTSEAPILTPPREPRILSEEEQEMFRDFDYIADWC

[1] = target: T3, Epidermal growth factor receptor (EGFR) (Homo sapiens, UniProt P00533); test: Epidermal Growth Factor Receptor (EGFR) enzymatic radiometric assay (Eurofins Cerep 14-531KP); format: biochemical
T3 construct: purchased Eurofins (Cerep), fee-for-service 14-531KP

Mouse recombinant iNOS = target: T4, Mouse recombinant iNOS (Mus musculus, UniProt P29477); test: Inducible NOS (iNOS) enzymatic assay (Eurofins Cerep 3185); format: biochemical
T4 construct: purchased Eurofins (Cerep), fee-for-service 3185; host or cells: Escherichia coli
Description: In vitro characterization was performed on a fee-for-service basis at Eurofins (www.eurofins.com) if the assay was commercially available. […] DTT) to remove unbound ligand and to reduce nonspecific binding. […] The analysis was carried on in polypropylene 384-well plates incubated at 25 °C with shaking for 1 h in a final volume of 20 μL. […] The kinase concentration in the eluates was measured by qPCR. […] The mixture was incubated for 90 minutes at 37 °C, followed by the addition of Griess reagent. The binding was determined by photometry at 545 nm. […] was used as reference compound. […] A primary screening in duplicated was carried out (30 μM) to determine the target activity. […] The reaction was initiated by the addition of the Mg/ATP mixture. Afte r incubation for 30 minutes at 25 °C, the reaction was terminated by the addition of a solution containing EDTA and biotinylated phosphatidylinositol - 3,4,5-trisphosphate. Detection buffer containing europium -labelled anti - GST monoclonal antibody, GST -tagged GRP1 PH domain and streptavidin -allophycocyanin was added. Following, the plate was read in time-resolved fluorescence mode and the homogeneous time -resolved fluorescence (HTRF) signal was determined according to the formula HTRF = 10000 x (Em665 nm/Em6 20 nm). PI-103 was used as reference compound. […] The binding was determined by Spectrofluorimetric quantitation of rhodamine 123 (Excitation: 485 nm, Emission: 535 nm). 2 -TEDC was used as a reference compound. A primary screening in duplicated was carried out (30 μM) to determine the target S4

PI3 Kinase (p110b/p85a) = target: T5, PI3 Kinase (p110b/p85a) (Homo sapiens, UniProt P42338); test: PI3 Kinase (p110b/p85a) enzymatic HTRF assay (Eurofins Cerep 14-603KP); format: biochemical; settings: for remaining activity at 30 µM: % kinase activity remaining
T5 construct: purchased Eurofins (Cerep), fee-for-service 14-603KP
T5 sequence (P42338 whole entry): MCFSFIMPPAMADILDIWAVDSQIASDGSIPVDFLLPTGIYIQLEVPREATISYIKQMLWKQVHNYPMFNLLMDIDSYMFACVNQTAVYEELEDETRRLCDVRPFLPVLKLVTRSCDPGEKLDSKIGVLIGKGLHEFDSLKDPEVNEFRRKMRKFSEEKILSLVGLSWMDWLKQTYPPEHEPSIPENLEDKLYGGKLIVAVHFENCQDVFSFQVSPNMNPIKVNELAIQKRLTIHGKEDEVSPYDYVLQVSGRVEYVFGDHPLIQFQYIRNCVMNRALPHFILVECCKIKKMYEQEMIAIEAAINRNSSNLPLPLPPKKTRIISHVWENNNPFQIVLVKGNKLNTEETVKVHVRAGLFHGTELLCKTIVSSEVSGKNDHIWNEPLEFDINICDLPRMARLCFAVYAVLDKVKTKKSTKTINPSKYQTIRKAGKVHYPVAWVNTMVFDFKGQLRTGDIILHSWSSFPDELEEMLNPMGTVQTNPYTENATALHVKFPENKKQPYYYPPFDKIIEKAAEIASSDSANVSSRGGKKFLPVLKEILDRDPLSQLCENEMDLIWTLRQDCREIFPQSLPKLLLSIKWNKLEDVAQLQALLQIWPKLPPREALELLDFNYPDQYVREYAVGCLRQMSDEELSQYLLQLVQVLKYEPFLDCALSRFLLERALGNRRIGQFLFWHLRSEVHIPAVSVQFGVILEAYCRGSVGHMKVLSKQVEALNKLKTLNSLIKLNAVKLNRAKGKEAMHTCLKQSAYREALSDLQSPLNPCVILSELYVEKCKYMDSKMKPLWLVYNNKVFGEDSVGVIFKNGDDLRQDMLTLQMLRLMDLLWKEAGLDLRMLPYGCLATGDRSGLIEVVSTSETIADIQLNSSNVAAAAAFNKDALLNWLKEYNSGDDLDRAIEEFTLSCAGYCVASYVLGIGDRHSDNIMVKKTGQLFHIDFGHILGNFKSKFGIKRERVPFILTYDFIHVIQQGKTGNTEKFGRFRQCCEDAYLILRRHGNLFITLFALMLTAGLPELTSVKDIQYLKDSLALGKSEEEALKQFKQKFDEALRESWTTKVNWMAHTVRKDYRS
T5 sequence (P27986 whole entry partner): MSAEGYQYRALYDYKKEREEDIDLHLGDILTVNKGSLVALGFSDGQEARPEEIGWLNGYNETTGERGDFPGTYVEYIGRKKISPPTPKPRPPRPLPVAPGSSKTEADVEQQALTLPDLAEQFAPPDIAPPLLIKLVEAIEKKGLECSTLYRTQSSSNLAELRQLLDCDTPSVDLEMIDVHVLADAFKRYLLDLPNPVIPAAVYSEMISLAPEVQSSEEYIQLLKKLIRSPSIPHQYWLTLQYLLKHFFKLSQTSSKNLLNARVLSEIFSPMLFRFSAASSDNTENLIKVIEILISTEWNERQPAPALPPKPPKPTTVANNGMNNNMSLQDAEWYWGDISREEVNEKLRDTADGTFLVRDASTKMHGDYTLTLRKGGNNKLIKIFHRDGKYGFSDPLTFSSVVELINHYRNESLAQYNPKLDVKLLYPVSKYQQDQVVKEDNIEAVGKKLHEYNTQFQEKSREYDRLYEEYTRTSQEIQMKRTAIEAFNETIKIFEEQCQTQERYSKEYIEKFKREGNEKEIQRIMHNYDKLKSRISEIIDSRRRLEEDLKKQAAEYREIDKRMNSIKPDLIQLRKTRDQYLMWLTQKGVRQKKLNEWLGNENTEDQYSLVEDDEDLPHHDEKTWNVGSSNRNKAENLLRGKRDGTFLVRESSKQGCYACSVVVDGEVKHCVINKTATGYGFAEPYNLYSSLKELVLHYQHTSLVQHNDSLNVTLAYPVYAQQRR
Description: Additional details on the conduct of in vitro assays are included in Supplementary Information S1. […]
PI3 Kinase (p110b/p85a). The enzyme was incubated in assay buffer containing 10 µM
phosphatidylinositol -4, 5-bispho sphate and Mg/A TP (200 µM). The reaction was initiated by
the addition of the Mg/ATP mixture. Afte r incubation for 30 minutes at 25 °C, the reaction was
terminated by the addition of a solution containing EDTA and biotinylated
phosphatidylinositol - 3,4,5-trisphosphate. Detection buffer containing europium -labelled anti -
GST monoclonal antibody, GST -tagged GRP1 PH domain and streptavidin -allophycocyanin
was added. Following, the plate was read in time-resolved fluorescence mode and the
homogeneous time -resolved fluorescence (HTRF) signal was determined according to the
formula HTRF = 10000 x (Em665 nm/Em6 20 nm). PI-103 was used as reference compound.
A primary screening in duplicated was carried out (30 µM) to determine the target activity. The
result was e xpres sed as a percentage of the positiv e control (i.e. % kinase activity remaining),
and the mean of the replicates was calculated. (Eurofins Cerep assay ID: 14 -603KP) […]
A primary screening in duplicated was carried out (30 µM) to determine the target

PDE10A = system: PDE10A; parameters: method as in printed at the sentence; settings: PDE10A inhibitor, papaverine analog; ref not given; cited from earlier work
[2] = target: T6, Human recombinant 15-ALOX (Homo sapiens, UniProt P16050); test: Arachidonate 15-lipoxygenase (15-ALOX) enzymatic assay (Eurofins Cerep 199017); format: biochemical
T6 construct: purchased Eurofins (Cerep), fee-for-service 199017; host or cells: E. coli
T6 sequence (P16050 1-662): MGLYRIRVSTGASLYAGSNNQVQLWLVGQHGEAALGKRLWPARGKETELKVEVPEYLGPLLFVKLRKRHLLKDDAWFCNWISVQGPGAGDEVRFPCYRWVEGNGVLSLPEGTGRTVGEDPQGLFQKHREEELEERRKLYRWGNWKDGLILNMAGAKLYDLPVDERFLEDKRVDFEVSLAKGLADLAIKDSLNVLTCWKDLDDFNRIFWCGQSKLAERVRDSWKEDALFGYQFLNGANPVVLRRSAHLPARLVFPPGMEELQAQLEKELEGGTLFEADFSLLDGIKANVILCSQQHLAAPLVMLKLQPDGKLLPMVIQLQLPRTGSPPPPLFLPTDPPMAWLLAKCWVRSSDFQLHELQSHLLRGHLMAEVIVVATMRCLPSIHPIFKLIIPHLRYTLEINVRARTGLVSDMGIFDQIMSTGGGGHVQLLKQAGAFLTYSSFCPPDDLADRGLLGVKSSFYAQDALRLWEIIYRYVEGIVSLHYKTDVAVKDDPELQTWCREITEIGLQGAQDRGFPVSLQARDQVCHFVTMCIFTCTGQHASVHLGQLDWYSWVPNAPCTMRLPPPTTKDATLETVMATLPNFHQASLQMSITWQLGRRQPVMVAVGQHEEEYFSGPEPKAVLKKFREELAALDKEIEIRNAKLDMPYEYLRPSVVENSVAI

human ADORA3 = target: T7, human ADORA3 (Homo sapiens, UniProt P0DMS8); test: Adenosine A3 receptor (ADORA3) functional cAMP HTRF assay in CHO cells (Eurofins Cerep G107); format: cell-based; settings: 8 concentrations, top 30 μM, active if IC50 lower than 30 μM
T7 construct: host or cells: CHO
T7 sequence (P0DMS8 1-318): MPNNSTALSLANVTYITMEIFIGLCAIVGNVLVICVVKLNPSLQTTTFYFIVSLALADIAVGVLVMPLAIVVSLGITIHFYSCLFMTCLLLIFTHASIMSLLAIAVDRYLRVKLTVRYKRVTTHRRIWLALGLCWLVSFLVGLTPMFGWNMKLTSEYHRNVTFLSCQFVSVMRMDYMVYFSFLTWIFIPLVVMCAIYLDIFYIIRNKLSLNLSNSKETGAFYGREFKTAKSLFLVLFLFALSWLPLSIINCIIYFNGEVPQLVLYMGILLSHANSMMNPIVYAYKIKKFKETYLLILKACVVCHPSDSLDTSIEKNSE
Description: In vitro characterization was performed on a fee-for-service basis at Eurofins (www.eurofins.com) if the assay was commercially available. […]
tested at 8 concentrations (100 µM a s the highest concentration and dilution factor in a log-scale) in triplicate for dose-response curve and IC50 determination. (Eurofins Cerep assay ID: […]
as §1, §2
used as standard inhibitory reference compound. […]
Functional activity of ADORA3 was evaluated in CHO cells transfected with human […]
(100 nM IB-MECA) in a first assay, and in a second one with […] (10 nM IB -ME CA) for 20 minutes at 37 °C, and formation of cAMP was determined by homogeneous time resolved fluorescence (HTRF) at lex=337 nm and lem=620 and 665 nm using a microplate reader (Envison, Perkin Elmer). The cAMP concentration was determined by dividing the […]
signal measured at 665 nm by that measured at 620 nm (ratio). […]

[3] = tested at 30 μM, active if IC50 lower than 30 μM

T1 sequence (Q9Y233 267-1055): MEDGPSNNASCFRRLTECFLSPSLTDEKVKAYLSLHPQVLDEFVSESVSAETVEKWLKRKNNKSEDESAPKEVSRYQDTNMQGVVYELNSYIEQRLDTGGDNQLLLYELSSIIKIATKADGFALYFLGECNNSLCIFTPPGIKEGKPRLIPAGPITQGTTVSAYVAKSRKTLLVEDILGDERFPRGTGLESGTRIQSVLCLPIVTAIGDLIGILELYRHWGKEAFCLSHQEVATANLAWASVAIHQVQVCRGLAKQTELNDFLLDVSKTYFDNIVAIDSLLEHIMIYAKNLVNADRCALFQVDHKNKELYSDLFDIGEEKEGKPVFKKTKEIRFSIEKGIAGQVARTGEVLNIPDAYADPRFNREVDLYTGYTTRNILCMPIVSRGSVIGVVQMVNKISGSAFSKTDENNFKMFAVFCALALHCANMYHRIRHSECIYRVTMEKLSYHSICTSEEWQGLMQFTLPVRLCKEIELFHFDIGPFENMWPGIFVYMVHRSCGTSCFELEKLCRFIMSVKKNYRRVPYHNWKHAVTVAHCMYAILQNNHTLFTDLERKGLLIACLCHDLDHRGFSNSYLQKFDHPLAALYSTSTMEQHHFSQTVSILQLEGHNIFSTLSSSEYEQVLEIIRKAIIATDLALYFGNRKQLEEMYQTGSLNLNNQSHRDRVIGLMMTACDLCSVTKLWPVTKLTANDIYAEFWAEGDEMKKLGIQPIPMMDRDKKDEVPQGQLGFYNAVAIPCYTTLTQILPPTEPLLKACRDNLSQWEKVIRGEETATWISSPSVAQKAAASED

inhibition at 30 µM (human PDE10A2; mean of n=2, read-out: % inhibition (mean) activity, PDE10A2): 44.8% | inhibition at 30 µM (human PDE10A2; replicate 1, read-out: % inhibition of control activity (1st), PDE10A2): 45.5% | inhibition at 30 µM (human PDE10A2; replicate 2, read-out: % inhibition of control activity (2nd), PDE10A2): 44% | IC50 (human PDE10A2; dose–response, 8 concentrations, top 100 μM, triplicate, mean ± SEM): 28 ± 2 µM | Ki (human PDE10A2; estimated from experimental IC50, Cheng and Prusoff): 6.1 µM | IC50 (μM), AA2AR, antagonistic effect (human AA2AR; antagonistic effect): Inactive | inhibition at 30 µM (PKN2 (human); read-out: % inhibition (mean) activity, PRK2): 98% | remaining activity at 30 µM (PKN2 (human); read-out: % inhibition of control activity (1st), measured as % of positive control activity, PRK2): 1% | remaining activity at 30 µM (PKN2 (human); read-out: % inhibition of control activity (2nd), measured as % of positive control activity, PRK2): 2% | inhibition at 30 µM ([1]; 30 µM, mean of n=2): 21% | IC50 (μM), EGFR [1, 3]: Inactive | inhibition at 30 µM (Mouse recombinant iNOS; mean of n=2, read-out: % inhibition (mean) activity, iNOS): 5% | inhibition at 30 µM (Mouse recombinant iNOS; replicate 1, read-out: % inhibition of control activity (1st), iNOS): 6% | inhibition at 30 µM (Mouse recombinant iNOS; replicate 2, read-out: % inhibition of control activity (2nd), iNOS): 4% | IC50 (μM), iNOS (Mouse recombinant iNOS; [3]): Inactive | inhibition at 30 µM (PI3 Kinase (p110b/p85a); 30 µM, mean of n=2, read-out: % inhibition (mean) activity, PI3Kbeta (p110b/p85a)): 4% | remaining activity at 30 µM (PI3 Kinase (p110b/p85a); 30 µM, replicate 1, read-out: % inhibition of control activity (1st), measured as % of positive control activity, PI3Kbeta (p110b/p85a)): 92% | remaining activity at 30 µM (PI3 Kinase (p110b/p85a); 30 µM, replicate 2, read-out: % inhibition of control activity (2nd), measured as % of positive control activity, PI3Kbeta (p110b/p85a)): 99% | IC50 (μM), PI3 Kinase (p110b/p85a) (PI3 Kinase (p110b/p85a); [3]): Inactive
Structure (SMILES): CCS(=O)(=O)N1CC(CC#N)(n2cc(-c3ncnc4[nH]ccc34)cn2)C1 [Baricitinib]

Structure (SMILES): COc1cc2ncnc(N3CC[C@@H](Oc4cnc5ccccc5n4)C3)c2cc1OC [PQ-10]
IC50 (PDE10A): 6 µM

IC50 (μM), AA2AR, agonistic effect (human AA2AR; agonistic effect (footnote c)): Inactive | IC50 (μM), 15-ALOX ([2]; 30 μM screen, follow-up 8 concentrations top 100 μM, triplicate, active if IC50 lower than 30 μM): Inactive | inhibition at 30 µM ([2]; mean of n=2, read-out: % inhibition (mean) activity, 15-LOX-1): 27% | inhibition at 30 µM ([2]; replicate 1, read-out: % inhibition of control activity (1st), 15-LOX-1): 19.3% | inhibition at 30 µM ([2]; replicate 2, read-out: % inhibition of control activity (2nd), 15-LOX-1): 34% | IC50 (μM), ADORA3, antagonistic and agonistic effect (human ADORA3): Inactive
Structure (SMILES): C[C@@H]1CCN(C(=O)CC#N)C[C@@H]1N(C)c1ncnc2[nH]ccc12 [Tofacitinib]
